Measurements taken from patent US12342819B2, “Elasnin, a bacteriostatic agent that has potent antibiofilm activities against both mono- and multi-species biofilm” (The Hong Kong University of Science and Technology, priority 2019, dated 2025).
Values after ≈ are worked out from the molar mass of the structure shown. Values joined by “and” are separate entries in the source; they are usually repeats but may differ in a detail not shown here. Equal values may be shown once.

Legend:
MRSA ATCC 43300 [1] = experiment: Concentration response curve study (CFU counting of planktonic cells); type: cell-based, Methicillin-resistant Staphylococcus aureus; details: 24 hours; vancomycin 0 to 50 μg/ml, elasnin 0 to 100 μg/ml
Procedure: MRSA ATCC 43300 was used for concentration response curve study. 4×10^5 CFU/ml of exponentially growing MRSA was inoculated into MHB with various concentrations of elasnin and vancomycin in 15 ml falcon tubes. The tubes were incubated at 37° C. on a rotary shaker for 24 hours; 1 ml of culture broth in each tube was diluted with MHB and 1 ml diluted bacteria was plated on MHA plates for the CFU counting. Each concentration was plated on two plates and the experiments were repeated 3-times.

MRSA ATCC 43300 [2] = experiment: Minimum inhibitory concentration (MIC), CLSI M100; type: cell-based, Methicillin-resistant Staphylococcus aureus; details: Staphylococcus aureus, 24 h
Procedure: (§1) Minimum inhibitory concentrations (MICs) and minimum bactericidal concentrations (MBCs) were determined with MRSA ATCC 43300 and E. coli ATCC 25922, according to the Clinical and Laboratory Standards Institute guideline CLSI M100 (2018). Approximately 10^5 CFU/ml overnight culture of the bacteria strains were inoculated into MHB and treated with series concentrations of Elasnin (or crude extracts and antibiotics). […] MBCs were measured following the MIC assay by plating 1 ml suitable diluted culture broth from each well on Mueller Hinton Agar (MHA) plate. The MBCs were defined as lowest concentration at which antimicrobial agent caused >99.9% reduction of cells. Each assay was done in duplicates and repeated 3 times.

MRSA ATCC 43300 [3] = experiment: Minimum bactericidal concentration (MBC); type: cell-based, Methicillin-resistant Staphylococcus aureus
Procedure: as §1

MRSA ATCC 43300 [4] = experiment: MBEC assay (eradication of pre-formed biofilm, MTT); type: cell-based, Methicillin-resistant Staphylococcus aureus; details: concentration eradicating 50% of mature biofilm within 24 hours
Procedure: (§2) Minimum biofilm inhibitory concentrations (MBICs) and minimum biofilm eradication concentrations (MBECs) were determined as previously described (30, 31).
(§3) The ability of Elasnin to eradicate pre-formed mature biofilm was tested through a MBEC assay. Similar to MBIC assay, an overnight culture of testing strains was incubated for 24 hours in 96-well cell culture plates but without adding Elasnin to form biofilm. Formed biofilm was then rinsed twice by 1×PBS and challenged with a series concentration of Elasnin (diluted with LB and 0.5% glucose) and incubated for another 24 hours at 37° C. After incubation, each well was rinsed twice by 1×PBS and MTT assay was conducted to measure viable cells in remaining biofilm.

MRSA ATCC 43300 [5] = experiment: MBIC assay (biofilm inhibition, MTT); type: cell-based, Methicillin-resistant Staphylococcus aureus; details: minimum concentration inhibiting 90% biofilm formation
Procedure: as §2
(§4) An overnight culture of the testing strains was diluted into approximately 10^7 with LB and 0.5% glucose and treated with various concentrations of Elasnin in 96-well cell culture plates. Culture broth was then incubated at 37° C. for 24 hours and rinsed twice by 1×PBS to remove non-adhering and planktonic cells. After the wash, MTT staining assay was conducted to measure viable cells in the biofilm since the MTT can react with activated succinate dehydrogenase in viable cell mitochondria to form blue violet formazan, which can be read at 570 nm after being dissolved in DMSO.

[6] = target: T1, human granulocyte elastase (Homo sapiens, UniProt P08246); details: cited from earlier work
T1 sequence (P08246 30-267): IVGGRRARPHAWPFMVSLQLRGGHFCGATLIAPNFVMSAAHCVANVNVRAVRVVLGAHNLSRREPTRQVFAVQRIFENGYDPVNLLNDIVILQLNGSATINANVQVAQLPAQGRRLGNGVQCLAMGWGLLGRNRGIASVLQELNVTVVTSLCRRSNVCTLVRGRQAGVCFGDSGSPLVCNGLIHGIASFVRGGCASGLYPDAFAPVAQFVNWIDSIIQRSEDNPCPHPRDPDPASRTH

pancreatic elastase = details: cited from earlier work
chymotrypsin = details: cited from earlier work
Bacillus subtilis 168 [7] = experiment: MBEC assay; type: cell-based; details: 50% eradication of mature biofilm
Procedure: as §2, §3

S. aureus ATCC 25923 [8] = experiment: MBEC assay; type: cell-based; details: S. aureus ATCC 25923, 50% eradication of mature biofilm
Procedure: as §2, §3

E. coli ATCC 25922 [9] = experiment: MBEC assay; type: cell-based; details: viability of biofilm cells constant as concentration increased
Procedure: as §2, §3

P. aeruginosa PAO1 [10] = experiment: MBEC assay; type: cell-based; details: viability of biofilm cells constant as concentration increased
Procedure: as §2, §3

S. aureus B04 [11] = experiment: MBEC assay; type: cell-based; details: S. aureus B04, 50% eradication of mature biofilm
Procedure: as §2, §3

MRSA biofilms = experiment: CLSM observation with biofilm cell and matrix staining; type: cell-based, Methicillin-resistant Staphylococcus aureus; details: elasnin 4 μg/mL
Procedure: Biofilms were grown on glass cover slides as described for the MBIC and MBEC assays. Treated biofilms were then rinsed twice with 1×PBS and stained with FilmTracer™ FM® 1-43 green biofilm cell stain and FilmTracer™ SYPRO® Ruby Biofilm Matrix Stain at room temperature for 30 min in the dark. Leica Sp8 Confocal Microscope was employed to observe cells and matrix in the biofilm at 488 nm.

Bacillus subtilis 168 [12] = experiment: MBIC assay; type: cell-based
Procedure: as §2, §4

S. aureus ATCC 25923 [13] = experiment: MBIC assay; type: cell-based; details: S. aureus ATCC 25923, 90% reduction of biofilm formation
Procedure: as §2, §4

E. coli ATCC 25922 [14] = experiment: MBIC assay; type: cell-based; details: even at 100 μg/ml
Procedure: as §2, §4

P. aeruginosa PAO1 [15] = experiment: MBIC assay; type: cell-based; details: even at 100 μg/ml
Procedure: as §2, §4

S. aureus B04 [16] = experiment: MBIC assay; type: cell-based; details: S. aureus B04, 90% reduction of biofilm formation
Procedure: as §2, §4

trypsin = details: cited from earlier work
[17] = biofilm eradication assay, pre-formed biofilm, 18 hr
[18] = biofilm inhibition assay, 24 hr, vs untreated

CN[C@H](CC(C)C)C(=O)N[C@H]1C(=O)N[C@@H](CC(N)=O)C(=O)N[C@H]2C(=O)N[C@H]3C(=O)N[C@H](C(=O)N[C@H](C(=O)O)c4cc(O)cc(O)c4-c4cc3ccc4O)[C@H](O)c3ccc(c(Cl)c3)Oc3cc2cc(c3O[C@@H]2O[C@H](CO)[C@@H](O)[C@H](O)[C@H]2O[C@H]2C[C@](C)(N)[C@H](O)[C@H](C)O2)Oc2ccc(cc2Cl)[C@H]1O [vancomycin, reference compound]
cell density versus concentration (concentration-response curve) (MRSA ATCC 43300 [1]): sharp decrease in cell density as the concentration increased
MIC (MRSA ATCC 43300 [2]): 0.5 to 2 µg/mL (≈ 0.345 to 1.38 µM)
MBC (MRSA ATCC 43300 [3]; Staphylococcus aureus): 20 to 50 µg/mL (≈ 13.8 to 34.5 µM)
MBEC (MRSA ATCC 43300 [4]): More than 10 μg/ml

CCCCCC(=O)C(CCCC)c1oc(=O)c(CCCC)c(O)c1CCCC (stereo not drawn) [elasnin]
MBIC (MRSA ATCC 43300 [5]): 1.25 to 2.5 µg/mL
cell density versus concentration (concentration-response curve) (MRSA ATCC 43300 [1]): cell densities did not significantly differ
inhibition of human granulocyte elastase [6]: inhibits
activity against pancreatic elastase (pancreatic elastase): almost no activities
activity against chymotrypsin (chymotrypsin): almost no activities
MBEC (Bacillus subtilis 168 [7]): 1.25 to 2.5 µg/mL
MBEC (S. aureus ATCC 25923 [8]): 0.625 to 1.25 µg/mL
activity in MBEC assay (E. coli ATCC 25922 [9]): No activity
activity in MBEC assay (P. aeruginosa PAO1 [10]): No activity
MBEC (S. aureus B04 [11]): 2.5 to 5 µg/mL
MBC (MRSA ATCC 43300 [3]; >99.9% reduction of cells): above 100 μg/ml
MBEC (MRSA ATCC 43300 [4]): 1.25 µg/mL and 1.25 to 2.5 µg/mL
reduction in cells (MRSA biofilms; [17]): over 50%
reduction in matrices (MRSA biofilms; [17]): > 70%
decrease in density of cells (MRSA biofilms; [18]): around 80%
decrease in density of matrices (MRSA biofilms; [18]): ~35%
MBIC (Bacillus subtilis 168 [12]; Bacillus subtilis 168, 90% reduction of biofilm formation): 2.5 to 5 µg/mL
biofilms inhibited (Bacillus subtilis 168 [12]; Bacillus subtilis 168, elasnin 1.25 μg/ml): at least 80%
MBIC (S. aureus ATCC 25923 [13]): 1.25 to 2.5 µg/mL
development of biofilm formation (E. coli ATCC 25922 [14]): not influenced
development of biofilm formation (P. aeruginosa PAO1 [15]): not influenced
MBIC (S. aureus B04 [16]): 1.25 to 2.5 µg/mL
activity against trypsin (trypsin): almost no activities
